For eleven molecules, GI50 and TGI results are on record in PubChem BioAssay (NCI).

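Exposure lasted 48 hours, with cells grown in 96-well plates and compounds tested at five concentrations. GI50: concentration for 50% inhibition of growth. The concentration for full growth arrest is given as TGI.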

The GI50 is the concentration that inhibits growth by half. For orientation: TGI means the concentration at which net growth stops. The low end stands for greater sensitivity of the cells, the high end for lower sensitivity of the cells.

Test systems include RXF 393 renal; UACC-257 melanoma; MDA-MB-435; SK-OV-3 ovarian; DU-145 prostate; NCI-H23 lung; SK-MEL-28 melanoma; ACHN renal.
Holding throughout (assay): DTP human tumour cell line panel, 48 h

As for `COc1cc(/C=C/C(=O)c2c(-c3ccc(F)cc3)nc3sc(C)nn23)cc(OC)c1OC`, the GI50 in the assay with RXF 393 renal was 2.11 µM; in the assay on UACC-257 melanoma, 4.18 µM; in the assay with MDA-MB-435, 3.35 µM; in the assay with SK-OV-3 ovarian, 2.99 µM; in the assay with DU-145 prostate, 2.91 µM; in the assay on NCI-H23 lung, 2.98 µM. Besides, the results for the GI50 in the assay on SK-MEL-28 melanoma and with ACHN renal were 2.19 µM and 1.93 µM, respectively. In addition, the TGI turned out to be 6.66 µM in the assay on RXF 393 renal; 16.5 µM in the assay on UACC-257 melanoma; 13 µM in the assay with MDA-MB-435; 8.91 µM in the assay with SK-OV-3 ovarian; 10.4 µM in the assay on DU-145 prostate; 9.55 µM in the assay on NCI-H23 lung. In addition, the figures for the total growth inhibition concentration (TGI) in the assay with SK-MEL-28 melanoma and in the assay with ACHN renal were 4.9 µM and 4.6 µM, respectively.
As for `CN(C)C=Nc1c(I)cc(I)c(CCC(=O)O)c1I`, the GI50 in the assay on RXF 393 renal, in the assay with UACC-257 melanoma, in the assay with MDA-MB-435, in the assay on SK-OV-3 ovarian, with DU-145 prostate and in the assay with NCI-H23 lung was more than 100 µM each time. For the same molecule, the GI50 with SK-MEL-28 melanoma and in the assay on ACHN renal was more than 100 µM each time. Moreover, the total growth inhibition concentration (TGI) in the assay on RXF 393 renal, with UACC-257 melanoma, in the assay on MDA-MB-435, in the assay on SK-OV-3 ovarian, in the assay on DU-145 prostate and in the assay with NCI-H23 lung was more than 100 µM each time. Also, the TGI with SK-MEL-28 melanoma and with ACHN renal was more than 100 µM throughout.
On to `CN1C(=O)C2(c3ccccc31)C1CC3C(CO1)C1C2C3(CO)CN1C#N` (centres undefined), for which the total growth inhibition concentration (TGI) in the assay with RXF 393 renal, in the assay with UACC-257 melanoma, in the assay on MDA-MB-435, with SK-OV-3 ovarian, with DU-145 prostate and in the assay on NCI-H23 lung was more than 100 µM each time. Moreover, the TGI in the assay with SK-MEL-28 melanoma and with ACHN renal was more than 100 µM in each case.
Turning to `CCCN(CCC)c1ccc(C=O)c(C)c1`, the GI50 in the assay on RXF 393 renal was 34.3 µM; in the assay with UACC-257 melanoma, 19.2 µM; in the assay with MDA-MB-435, 32.6 µM; with SK-OV-3 ovarian it was more than 100 µM; with DU-145 prostate, 77.6 µM; in the assay with NCI-H23 lung, 35.8 µM. Moreover, the figures for the GI50 with SK-MEL-28 melanoma and in the assay with ACHN renal were 68.2 µM and 49.4 µM, respectively. The total growth inhibition concentration (TGI) is more than 100 µM in the assay on RXF 393 renal; more than 96.3 µM in the assay with UACC-257 melanoma; more than 100 µM in the assay with MDA-MB-435; more than 100 µM with SK-OV-3 ovarian; more than 100 µM with DU-145 prostate; more than 100 µM in the assay on NCI-H23 lung. The total growth inhibition concentration (TGI) in the assay on SK-MEL-28 melanoma and in the assay on ACHN renal was more than 100 µM in each case.
With `CCNCCNc1cc(-c2ccc(C(F)(F)F)cc2)c(C#N)c2nc3cc(Cl)c(Cl)cc3n12`, the GI50 in the assay on RXF 393 renal is 1.3 µM; in the assay with UACC-257 melanoma, 1.9 µM; in the assay on MDA-MB-435, 1.65 µM; in the assay on SK-OV-3 ovarian, 2.01 µM; with DU-145 prostate it was 1.7 µM; with NCI-H23 lung, 1.77 µM. Also, the GI50 with SK-MEL-28 melanoma is 1.4 µM; with ACHN renal, 1.61 µM. Besides, the total growth inhibition concentration (TGI) stood at 2.62 µM in the assay with RXF 393 renal; 3.39 µM in the assay on UACC-257 melanoma; 3.16 µM in the assay with MDA-MB-435; 3.45 µM with SK-OV-3 ovarian; 3.13 µM in the assay with DU-145 prostate; 3.52 µM in the assay with NCI-H23 lung. In addition, the TGI with SK-MEL-28 melanoma came out at 2.89 µM; with ACHN renal it was 3.1 µM.
`COc1ccc(OC)c(/C=C/c2ccnc3ccccc23)c1`: the concentration for total growth inhibition (TGI) in the assay on RXF 393 renal amounted to 2.72 µM; in the assay on UACC-257 melanoma it was 18.8 µM; in the assay on MDA-MB-435, 0.331 µM; in the assay with SK-OV-3 ovarian, 5.1 µM; with DU-145 prostate, 13.1 µM; in the assay on NCI-H23 lung it was 5.72 µM. Besides, the total growth inhibition concentration (TGI) was determined as 20.5 µM in the assay on SK-MEL-28 melanoma and 18.8 µM in the assay with ACHN renal.
Regarding `C=C1C(=O)C2=CC1CCC(=O)C1(C)CCC(OC(C)=O)C(C)(C)C1CC2O` (centres undefined), the TGI in the assay on RXF 393 renal was 6.31 µM; with UACC-257 melanoma it was 17 µM; in the assay on MDA-MB-435, 26 µM; in the assay on SK-OV-3 ovarian, 23 µM; in the assay on DU-145 prostate, 13.9 µM; in the assay on NCI-H23 lung, 8.62 µM. Further, the TGI in the assay on SK-MEL-28 melanoma was more than 46.4 µM; in the assay on ACHN renal, 6.82 µM.
Take `CN(C)CCNC(=O)c1ccc2oc3cc4ccccc4c(=O)n3c2c1`: the GI50 in the assay on RXF 393 renal is 23.8 µM; with UACC-257 melanoma, 23.9 µM; in the assay with MDA-MB-435, 42.1 µM; in the assay on SK-OV-3 ovarian it was 63.8 µM; in the assay on DU-145 prostate, 33.4 µM; with NCI-H23 lung it was 17.4 µM. Also, the figures for the GI50 in the assay with SK-MEL-28 melanoma and in the assay on ACHN renal were 26.6 µM and 15.1 µM, respectively. Further, the TGI in the assay with RXF 393 renal is 70.4 µM; in the assay with UACC-257 melanoma it was 58 µM; in the assay on MDA-MB-435, more than 100 µM; with SK-OV-3 ovarian it was more than 100 µM; in the assay on DU-145 prostate, more than 100 µM; in the assay with NCI-H23 lung, 57.8 µM. The TGI is more than 100 µM in the assay on SK-MEL-28 melanoma and 37.6 µM in the assay on ACHN renal.
As for `N#Cc1c(N/N=C\c2ccc(Cl)cc2)nc(N)nc1N1CCOCC1`, the GI50 in the assay on RXF 393 renal is 15 µM; with UACC-257 melanoma, 32.2 µM; in the assay with MDA-MB-435, 35 µM; in the assay with SK-OV-3 ovarian, more than 100 µM; with DU-145 prostate it was 28.8 µM; in the assay on NCI-H23 lung it was 87.8 µM. Further, the GI50 in the assay with SK-MEL-28 melanoma was more than 100 µM; with ACHN renal, 23.1 µM. Also, the TGI in the assay on RXF 393 renal, with UACC-257 melanoma, in the assay with MDA-MB-435, in the assay on SK-OV-3 ovarian, in the assay with DU-145 prostate and in the assay on NCI-H23 lung was more than 100 µM each time. Besides, the figures for the concentration for total growth inhibition (TGI) in the assay on SK-MEL-28 melanoma and with ACHN renal were more than 100 µM and 92.6 µM, respectively.
With `O=c1cccc2n1CC1CNC[C@H]2C1`, the total growth inhibition concentration (TGI) in the assay with RXF 393 renal, in the assay on UACC-257 melanoma, with MDA-MB-435, in the assay on SK-OV-3 ovarian, with DU-145 prostate and in the assay on NCI-H23 lung was more than 100 µM each time. For the same molecule, the total growth inhibition concentration (TGI) in the assay on SK-MEL-28 melanoma and with ACHN renal was more than 100 µM in each case.
Regarding `O=C1CC(N2C(=O)/C(=C/C(Cl)=C\c3ccc([N+](=O)[O-])cc3)SC2=S)C(=O)N1c1ccc(O)cc1` (centres undefined), the GI50 is 1.53 µM with RXF 393 renal; 2.48 µM in the assay with UACC-257 melanoma; 2.01 µM in the assay with MDA-MB-435; 2.99 µM with SK-OV-3 ovarian; 1.72 µM in the assay on DU-145 prostate; 1.56 µM in the assay with NCI-H23 lung. The GI50 is 1.95 µM in the assay with SK-MEL-28 melanoma and 1.36 µM in the assay on ACHN renal. Besides, the concentration for total growth inhibition (TGI) with RXF 393 renal came out at 3.22 µM; with UACC-257 melanoma, 9.12 µM; with MDA-MB-435, 4.34 µM; in the assay with SK-OV-3 ovarian, 9.26 µM; with DU-145 prostate, 3.37 µM; in the assay with NCI-H23 lung, 3.52 µM. Besides, the TGI in the assay with SK-MEL-28 melanoma was found to be 4.2 µM; in the assay on ACHN renal, 2.76 µM.
